Key:
Fas mRNA = experiment: qRT-PCR Fas mRNA level in steatosis-induced Huh-7 cells; type: cell-based, Human; conditions: steatosis-induced (OA/PA) Huh-7 cells; 10 μM; 24 hours
Experimental: In Experimental Example 5, the Huh-7 cells were plated in 6 wells at 4×10^5 cells/mL and incubated under an atmosphere containing 5% CO2 at 37° C.
One day later, the cell density approached about 80 to 90%. The medium was changed to an FBS-free RPMI1640 medium, and incubated under an atmosphere containing 5% CO2 at 37° C. for 24 hours.
Huh-7 cells of each well, excluding control cells, were pretreated with an OA/PA mixture for one hour to induce steatosis. The control cells were pretreated with 1% FA-free BSA.
Each well was treated with 10 μM of a test compound, and then the cells were incubated for 24 hours. The control cells and OA/PA-treated cells were treated with DMSO. Cells of a positive control were treated with 10 μM of resveratrol, 10 μM of piperine, and 10 μM of YU2014. The medium was entirely aspirated, and the cells were washed with PBS (phosphate buffered saline, Corning, Manassas, Va., USA) two times.
Total RNA was extracted using a RNeasy RNA isolation kit (Qiagen, Hilden, Germany).
10 μL of β-mercaptoethanol (Sigma-Aldrich) per 1 mL of lysis buffer was added, thereby preparing an RNA lysis buffer. […]
An RNA concentration was measured at O.D. 260 nm using a nanophotometer N60 (Implen, Munich, Germany). The concentration and purity of RNA were measured at O.D. 260/280 nm and calculated as a ratio. […]
Quantitative analyses for the genes in Table 3 were performed.

CK2 = target: T1, CK2 (Homo sapiens, UniProt P68400); experiment: CK2 kinase assay (CycLex CK2 kinase assay/inhibitor screening kit); type: biochemical; conditions: 20 μM
T1 construct: purchased New England Biolabs (Ipswich, Mass., USA)
Experimental: All materials were provided from a CycLex CK2 kinase assay/inhibitor screening kit (Medical and Biological Laboratories CO., LTD, Nagoya, Japan).
All specimens were prepared in triplicate.
10 μL of a diluted sample was added to a 96-well plate placed on ice.
Three wells having 10 μL of a CK2α positive control (2 unit/μL) were included as a positive control in each analysis method. CK2α was purchased from New England Biolabs (Ipswich, Mass., USA).
A phosphorylation reaction was initiated by adding 90 μL of a phosphorylation reaction buffer to each well, and the 96-well plate was covered with a plate cover. The plate was incubated at 30° C. for 30 minutes. Each well was washed with a washing buffer five times, and it was confirmed whether each well was completely filled. With gentle tapping, a residual washing solution was removed.
100 μL of HRP-conjugated detection antibodies were added to each well, and the plate was covered with a plate cover. While the plate was incubated at room temperature (25 to 30° C.) for 30 minutes, the remaining HRP-conjugated detection antibodies after use were removed. Each well was washed five times, and the residual washing buffer was removed with gentle tapping. […]
Absorbance at dual wavelengths of 450/540 nm was measured for each well using Cytation 5. Data was analyzed.

T1 sequence (P68400 whole entry): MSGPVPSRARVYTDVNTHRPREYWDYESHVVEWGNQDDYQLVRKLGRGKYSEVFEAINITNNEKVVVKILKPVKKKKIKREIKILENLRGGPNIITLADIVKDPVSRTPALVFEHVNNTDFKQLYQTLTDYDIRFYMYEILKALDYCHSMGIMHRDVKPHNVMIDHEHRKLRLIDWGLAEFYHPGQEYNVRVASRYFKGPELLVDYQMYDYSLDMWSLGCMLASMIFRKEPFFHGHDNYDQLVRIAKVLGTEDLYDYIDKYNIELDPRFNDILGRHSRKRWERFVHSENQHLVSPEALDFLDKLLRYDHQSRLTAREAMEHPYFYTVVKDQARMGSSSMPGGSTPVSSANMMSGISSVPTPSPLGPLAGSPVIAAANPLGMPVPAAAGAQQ
T1 sequence (P67870 whole entry partner): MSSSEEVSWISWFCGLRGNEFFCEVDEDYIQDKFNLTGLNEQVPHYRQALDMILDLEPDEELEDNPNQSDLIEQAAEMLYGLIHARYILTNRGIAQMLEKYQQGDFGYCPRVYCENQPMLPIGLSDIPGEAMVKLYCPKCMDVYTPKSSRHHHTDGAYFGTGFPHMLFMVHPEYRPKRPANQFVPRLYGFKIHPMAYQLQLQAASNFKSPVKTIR

## CSc1ccc(/C=C/C=C/C(=O)N2CCCCC2)cc1 [YU2014, (2E,4E)-5-(4-(methylthio)phenyl)-1-(piperidine-1-yl)penta-2,4-dien-1-one]
Fas mRNA
  Fas mRNA level (FIG. 13): reduce
CK2
  CK2 activity (FIG. 21): did not have a CK2 activity reducing effect

Source: patent US20200157048A1, “(2E,4E)-5-PHENYL-PENTA-2,4-DIEN-1-ONE DERIVATIVE” (BIOWAY., INC, priority 2018, published 2020)
